Laboratory results from PMC11532494 (Nature Communications, 2024).
Values joined by “and” are separate entries in the source; they are usually repeats but may differ in a detail not shown here. Identical values can stand only once. Like-named read-outs stand apart in the source and are kept apart here. No end group written: not given here. *: point of attachment. AMC = Cc1cc(=O)oc2cc(N*)ccc12

Tests used:
PsApaH (4) [1] = biological target: T1, PsApaH (4) (Pseudomonas sp. M30-35, UniProt A0A1Y0KY79); assay: Acetyl-polyamine deacetylase assay; format: biochemical; settings: for [acetate] (individual samples): acetate released from acetyl-polyamine substrate, Sample 1-3; for [acetate] mean: mean of samples
Target sequence in this assay (A0A1Y0KY79 1-342 limits assumed): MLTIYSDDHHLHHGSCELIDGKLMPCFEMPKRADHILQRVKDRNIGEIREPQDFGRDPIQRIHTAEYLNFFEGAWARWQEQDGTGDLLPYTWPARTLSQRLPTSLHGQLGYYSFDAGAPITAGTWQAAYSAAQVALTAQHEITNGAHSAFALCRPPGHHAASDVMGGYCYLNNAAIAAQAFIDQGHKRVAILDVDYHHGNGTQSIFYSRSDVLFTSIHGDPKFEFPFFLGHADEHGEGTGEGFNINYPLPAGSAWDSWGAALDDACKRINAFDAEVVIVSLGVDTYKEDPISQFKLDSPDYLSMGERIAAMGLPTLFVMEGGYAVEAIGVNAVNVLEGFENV

PA1409 = PA1409 (Pseudomonas aeruginosa, UniProt Q9I3T5); assay: Acetyl-polyamine deacetylase assay (positive control); format: biochemical; settings: for [acetate] (individual samples): PA1409, acetate released from acetyl-polyamine substrate, Sample 1-2; for [acetate] mean: mean of samples
Sequence of PA1409 (Q9I3T5 whole entry): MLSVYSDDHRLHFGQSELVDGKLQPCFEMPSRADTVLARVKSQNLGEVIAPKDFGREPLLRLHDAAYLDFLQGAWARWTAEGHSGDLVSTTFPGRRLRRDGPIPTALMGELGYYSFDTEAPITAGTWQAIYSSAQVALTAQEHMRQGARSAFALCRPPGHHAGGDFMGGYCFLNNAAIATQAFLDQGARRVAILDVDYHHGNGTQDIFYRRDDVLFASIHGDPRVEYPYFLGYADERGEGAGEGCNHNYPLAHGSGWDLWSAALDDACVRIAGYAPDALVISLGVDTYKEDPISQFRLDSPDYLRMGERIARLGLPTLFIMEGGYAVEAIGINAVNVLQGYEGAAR

KpHdaH (1b) = KpHdaH (1b) (Klebsiella pneumoniae, UniProt A0A377Z5F6); format: biochemical; settings: KpHdaH (1b)
VsHdaH (1b) = format: biochemical, Vibrio sp.; settings: VKDAC
PsApaH (4) [2] = biological target: T1, PsApaH (4); format: biochemical; settings: PsApaH (4)
Method: (§1) Experiments with SIRT2 and SIRT5 were supplemented with NAD^+ (500 µM). Thereafter, a solution of trypsin (25 µL, 5.0 mg/mL; final concentration of 2.5 mg/mL) was added, and the development of the assay was allowed to proceed for 90 min at room temperature before fluorescence analysis. […] To this end, a single category is given to all conversions >48% on the heatmap. […] For the H4-derived peptide LGKbio no positive control was available.

BsAcuC (2c) = biological target: T2, BsAcuC (2c) (Bacillus subtilis, UniProt P39067); assay: Substrate screening assay (acyl-peptide-AMC); format: biochemical; settings: BsAcuC (2c); for [AMC]: Transform RFU in [AMC]
T2 construct: made in house; host or cells: E. coli BL21 (DE3)
T2 sequence (P39067 1-387): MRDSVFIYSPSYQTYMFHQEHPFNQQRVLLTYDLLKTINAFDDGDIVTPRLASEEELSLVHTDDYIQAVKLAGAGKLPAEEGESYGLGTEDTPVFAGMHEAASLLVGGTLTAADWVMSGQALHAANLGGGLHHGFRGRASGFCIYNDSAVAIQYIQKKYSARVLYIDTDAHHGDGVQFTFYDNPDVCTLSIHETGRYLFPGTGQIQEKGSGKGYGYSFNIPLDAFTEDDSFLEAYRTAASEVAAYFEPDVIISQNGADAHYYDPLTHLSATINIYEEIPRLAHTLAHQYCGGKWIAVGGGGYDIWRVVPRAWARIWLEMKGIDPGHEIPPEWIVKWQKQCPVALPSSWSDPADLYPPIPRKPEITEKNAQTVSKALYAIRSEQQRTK
Method: as §1

VcHdaH (5b) = format: biochemical, Vibrio cholerae; settings: VcHdaH (5b); for [AMC]: Transform RFU in [AMC]
Controls = assay: Substrate screening assay (acyl-peptide-AMC), control enzymes; format: biochemical

Compound	[acetate] (individual samples) (PsApaH (4) [1]; time 10 min)	[acetate] (individual samples) (PsApaH (4) [1]; time 20 min)	[acetate] (individual samples) (PsApaH (4) [1]; time 45 min)	[acetate] mean (PsApaH (4) [1]; time 10 min)	[acetate] mean (PsApaH (4) [1]; time 20 min)	[acetate] mean (PsApaH (4) [1]; time 45 min)	[acetate] (individual samples) (PA1409; time 5 min)	[acetate] (individual samples) (PA1409; time 10 min)	[acetate] (individual samples) (PA1409; time 20 min)	[acetate] (individual samples) (PA1409; time 45 min)	[acetate] mean (PA1409; PA1409, time 5 min)	[acetate] mean (PA1409; PA1409, time 10 min)	[acetate] mean (PA1409; PA1409, time 20 min)	[acetate] mean (PA1409; PA1409, time 45 min)	Relative Fluorescene Units (RFU) (KpHdaH (1b); Sample 1)	Relative Fluorescene Units (RFU) (KpHdaH (1b); Sample 2)	Relative Fluorescene Units (RFU) (KpHdaH (1b); Transform RFU*2, Sample 1)	Relative Fluorescene Units (RFU) (KpHdaH (1b); Transform RFU*2, Sample 2)	Relative Fluorescene Units (RFU) (VsHdaH (1b); Transform RFU*2, Sample 1)	Relative Fluorescene Units (RFU) (VsHdaH (1b); Transform RFU*2, Sample 2)	other results
CC(=O)NCCCNCCCCNCCCN [N1/N12-acetylspermine]	4.0761 mM and 4.1848 mM and 4.12 mM	7.467 mM and 7.707 mM and 7.62 mM	11.6196 mM and 12.1848 mM and 11.8587 mM	4.127 mM	7.598 mM	11.8877 mM	3.921 mM and 3.216 mM	19.1192 mM and 18.2382 mM	34.0974 mM and 33.8331 mM	42.3354 mM and 46.7408 mM	3.568 mM	18.6787 mM	33.9653 mM	44.5381 mM	–	–	–	–	–	–	[acetate] (individual samples) (PsApaH (4) [1]; time 5 min): 2.337 mM and 2.446 mM and 2.554 mM; [acetate] mean (PsApaH (4) [1]; time 5 min): 2.446 mM
CC(=O)NCCCCNCCCN [N8-acetylspermidine]	2.185 mM and 2.098 mM and 1.946 mM	3.446 mM and 3.4674 mM and 3.489 mM	4.967 mM and 5.12 mM (2×)	2.076 mM	3.4674 mM	5.069 mM	5.081 mM and 5.477 mM	19.9519 mM and 19.336 mM	23.7355 mM and 22.9876 mM	24.7914 mM and 25.3193 mM	5.279 mM	19.6439 mM	23.3615 mM	25.0553 mM	–	–	–	–	–	–	–
QPKKhex (QPKK-{AMC}; not fully specified (residue 4); printed as QPKKhex; also: hexanoyl-lysine (which Lys not given here); UniProt P04637 317-320, looked up, fragment)	–	–	–	–	–	–	–	–	–	–	–	–	–	–	170 RFU	14 RFU	340 RFU	28 RFU	72 RFU	194 RFU	Relative Fluorescene Units (RFU) (VsHdaH (1b); Sample 1): 36 RFU; Relative Fluorescene Units (RFU) (VsHdaH (1b); Sample 2): 97 RFU; Relative Fluorescene Units (RFU) (PsApaH (4) [2]; Sample 1): 128 RFU; Relative Fluorescene Units (RFU) (PsApaH (4) [2]; Sample 2): 61 RFU; Relative Fluorescene Units (RFU) (PsApaH (4) [2]; Transform RFU*2, Sample 1): 256 RFU; Relative Fluorescene Units (RFU) (PsApaH (4) [2]; Transform RFU*2, Sample 2): 122 RFU; Relative Fluorescene Units (RFU) (BsAcuC (2c); Sample 1): 1720 RFU; Relative Fluorescene Units (RFU) (BsAcuC (2c); Sample 2): 1255 RFU; [AMC] (BsAcuC (2c); Sample 1): 1679.69 nM; [AMC] (BsAcuC (2c); Sample 2): 1225.59 nM; Relative Fluorescene Units (RFU) (BsAcuC (2c); Transform RFU*2, Sample 1): 3440 RFU; Relative Fluorescene Units (RFU) (BsAcuC (2c); Transform RFU*2, Sample 2): 2510 RFU; [AMC] (VcHdaH (5b); Sample 1): -22.46 nM; [AMC] (VcHdaH (5b); Sample 2): 121.09 nM; Relative Fluorescene Units (RFU) (VcHdaH (5b); Transform RFU*2, Sample 1): -46 RFU; Relative Fluorescene Units (RFU) (VcHdaH (5b); Transform RFU*2, Sample 2): 248 RFU; Relative Fluorescene Units (RFU) (VcHdaH (5b); Sample 1): -23 RFU; Relative Fluorescene Units (RFU) (VcHdaH (5b); Sample 2): 124 RFU; [AMC] (Controls): 3.01563 µM and 4.0166 µM
QPKKlau (QPKK-{AMC}; not fully specified (residue 4); printed as QPKKlau; also: lauroyl-lysine (which Lys not given here); UniProt P04637 317-320, looked up, fragment)	–	–	–	–	–	–	–	–	–	–	–	–	–	–	-177 RFU	-96 RFU	-354 RFU	-192 RFU	-308 RFU	12 RFU	Relative Fluorescene Units (RFU) (VsHdaH (1b); Sample 1): -154 RFU; Relative Fluorescene Units (RFU) (VsHdaH (1b); Sample 2): 6 RFU; Relative Fluorescene Units (RFU) (PsApaH (4) [2]; Sample 1): 196 RFU; Relative Fluorescene Units (RFU) (PsApaH (4) [2]; Sample 2): 66 RFU; Relative Fluorescene Units (RFU) (PsApaH (4) [2]; Transform RFU*2, Sample 1): 392 RFU; Relative Fluorescene Units (RFU) (PsApaH (4) [2]; Transform RFU*2, Sample 2): 132 RFU; Relative Fluorescene Units (RFU) (BsAcuC (2c); Sample 1): 1004 RFU; Relative Fluorescene Units (RFU) (BsAcuC (2c); Sample 2): 695 RFU; [AMC] (BsAcuC (2c); Sample 1): 980.47 nM; [AMC] (BsAcuC (2c); Sample 2): 678.71 nM; Relative Fluorescene Units (RFU) (BsAcuC (2c); Transform RFU*2, Sample 1): 2008 RFU; Relative Fluorescene Units (RFU) (BsAcuC (2c); Transform RFU*2, Sample 2): 1390 RFU; [AMC] (VcHdaH (5b); Sample 1): -112.30 nM; [AMC] (VcHdaH (5b); Sample 2): -47.85 nM; Relative Fluorescene Units (RFU) (VcHdaH (5b); Transform RFU*2, Sample 1): -230 RFU; Relative Fluorescene Units (RFU) (VcHdaH (5b); Transform RFU*2, Sample 2): -98 RFU; Relative Fluorescene Units (RFU) (VcHdaH (5b); Sample 1): -115 RFU; Relative Fluorescene Units (RFU) (VcHdaH (5b); Sample 2): -49 RFU; [AMC] (Controls): 10.32715 µM and 12.34863 µM
